Key:
enolase, PK, LDH = experiment: Counter-screen assay (coupled enzymes without PGAM1, 2PG as substrate); format: biochemical
Method: The counter-screen assay was then performed to exclude the off-target inhibition against other enzymes in the in vitro assay (Table 3).

H1299 cell line = experiment: In vitro antiproliferation of H1299 cells (MTT method); format: cell-based; settings: Homo sapiens, NCI-H1299, 72 h, means ± SD from three determinations
Method: Then, some representative compounds were picked out to evaluate their antiproliferative activity (H1299 cell line) by the MTT method (Table 4).
2 × 10^3 cells were seeded in a 96-well plate before starting the assay and they were cultured at 37 °C. After seeding for 24 h, cells were treated with inhibitors with a specific concentration and incubated at 37 °C for 72 h, followed by incubation with 0.5 mg mL^−1 MTT for 4 h at 37 °C. Then, 200 µL of DMSO was added and the absorbance was measured at 570 nm.

PGAM1 = settings: Figure 1; ref 14 (PGMI-004A), ref 20 (EGCG); cited from earlier work
H1299 cell = settings: Figure 1; ref 14 (PGMI-004A), ref 20 (EGCG); cited from earlier work

**Q.** Which “Counter-Screen Assay (5 μM), inhibition ratio against the other three enzymes” value (enolase, PK, LDH) does the source give for `O=c1c2c(O)cccc2oc2cc(NS(=O)(=O)c3cccc(Cl)c3F)cc(O)c12` [Compound 9h, 3-Chloro-N-(1,8-dihydroxy-9-oxo-9H-xanthen-3-yl)-2-fluorobenzenesulfonamide] here?
**A.** The value was 12%.

**Q.** And the IC50 (H1299 cell line)?
**A.** The IC50 was 14.1 ± 1.9 µM.

**Q.** For `CC(C)(C)c1ccc(S(=O)(=O)Nc2cc(O)c3c(=O)c4c(O)cccc4oc3c2)cc1` [Compound 9k, 4-(tert-Butyl)-N-(1,8-dihydroxy-9-oxo-9H-xanthen-3-yl)benzenesulfonamide], which “Counter-Screen Assay (5 μM), inhibition ratio against the other three enzymes” value (enolase, PK, LDH) is on record?
**A.** Its value is 12%.

**Q.** And the IC50 (H1299 cell line)?
**A.** Its IC50 is 21.1 ± 1.7 µM.

**Q.** For `O=c1c2cc(Cl)ccc2oc2cc(NS(=O)(=O)c3ccc(-c4ccccc4)cc3)cc(O)c12` [Compound 15f, N-(7-Chloro-1-hydroxy-9-oxo-9H-xanthen-3-yl)-[1,1′-biphenyl]-4-sulfonamide], which “Counter-Screen Assay (5 μM), inhibition ratio against the other three enzymes” value (enolase, PK, LDH) is on record?
**A.** The value was 8%.

**Q.** What about the IC50 (H1299 cell line) of the same compound?
**A.** The IC50 was 32.7 ± 0.9 µM.

**Q.** With `Nc1ccn([C@@H]2O[C@H](CO)[C@@H](O)C2(F)F)c(=O)n1` [Gemcitabine, reference compound] as the compound, how does the IC50 (H1299 cell line) read?
**A.** The IC50 was 0.193 µM.

**Q.** With `O=c1c2cc([N+](=O)[O-])ccc2oc2cc(NS(=O)(=O)c3ccc(-c4ccccc4)cc3)cc(O)c12` [Compound 15h, N-(1-Hydroxy-7-nitro-9-oxo-9H-xanthen-3-yl)-[1,1′-biphenyl]-4-sulfonamide] as the compound, how does the “Counter-Screen Assay (5 μM), inhibition ratio against the other three enzymes” value (enolase, PK, LDH) read?
**A.** The value was 5%.

**Q.** What about the IC50 (H1299 cell line) of the same compound?
**A.** The IC50 was 33.8 ± 6.1 µM.

**Q.** Which “Counter-Screen Assay (5 μM), inhibition ratio against the other three enzymes” value (enolase, PK, LDH) does the source give for `CC(=O)Oc1ccc2oc3cc(NS(=O)(=O)c4ccc(-c5ccccc5)cc4)cc(O)c3c(=O)c2c1` [Compound 15j, 6-([1,1′-Biphenyl]-4-sulfonamido)-8-hydroxy-9-oxo-9H-xanthen-2-yl acetate] here?
**A.** Its value is 7%.

**Q.** What about the IC50 (H1299 cell line) of the same compound?
**A.** The IC50 was 31.1 ± 4.5 µM.

**Q.** With `Cc1cccc2c(=O)c3c(O)cc(NS(=O)(=O)c4ccc(-c5ccccc5)cc4)cc3oc12` [Compound 15c, N-(1-Hydroxy-5-methyl-9-oxo-9H-xanthen-3-yl)-[1,1′-biphenyl]-4-sulfonamide] as the compound, how does the “Counter-Screen Assay (5 μM), inhibition ratio against the other three enzymes” value (enolase, PK, LDH) read?
**A.** The value was 7%.

**Q.** Which IC50 (PGAM1) does the source give for `O=C(O[C@@H]1Cc2c(O)cc(O)cc2O[C@@H]1c1cc(O)c(O)c(O)c1)c1cc(O)c(O)c(O)c1` [EGCG, epigallocatechin gallate] here?
**A.** Its IC50 is 0.49 µM.

**Q.** And the IC50 (H1299 cell)?
**A.** The IC50 was greater than 80 µM.

**Q.** For `O=C1c2ccccc2C(=O)c2c1cc(S(=O)(=O)Nc1ccc(C(F)(F)F)cc1)c(O)c2O` [PGMI-004A, reference compound], which IC50 (H1299 cell line) is on record?
**A.** Its IC50 is 26 ± 2.1 µM.

**Q.** What about the IC50 (H1299 cell) of the same compound?
**A.** The IC50 was 25.6 µM.

**Q.** For `O=c1c2c(O)cccc2oc2cc(NS(=O)(=O)c3ccc(C4CCCCC4)cc3)cc(O)c12` [Compound 9l, 4-Cyclohexyl-N-(1,8-dihydroxy-9-oxo-9H-xanthen-3-yl)benzenesulfonamide], which “Counter-Screen Assay (5 μM), inhibition ratio against the other three enzymes” value (enolase, PK, LDH) is on record?
**A.** Its value is 15%.

**Q.** What about the IC50 (H1299 cell line) of the same compound?
**A.** Its IC50 is 18.5 ± 2.3 µM.

**Q.** Which “Counter-Screen Assay (5 μM), inhibition ratio against the other three enzymes” value (enolase, PK, LDH) does the source give for `COc1ccc2oc3cc(NS(=O)(=O)c4ccc(-c5ccccc5)cc4)cc(O)c3c(=O)c2c1` [Compound 15d, N-(1-Hydroxy-7-methoxy-9-oxo-9H-xanthen-3-yl)-[1,1′-biphenyl]-4-sulfonamide] here?
**A.** Its value is 6%.

**Q.** What about the IC50 (H1299 cell line) of the same compound?
**A.** Its IC50 is 19.6 ± 2.2 µM.

**Q.** For `Cc1ccc2oc3cc(NS(=O)(=O)c4ccc(-c5ccccc5)cc4)cc(O)c3c(=O)c2c1` [Compound 15e, N-(1-Hydroxy-7-methyl-9-oxo-9H-xanthen-3-yl)-[1,1′-biphenyl]-4-sulfonamide], which “Counter-Screen Assay (5 μM), inhibition ratio against the other three enzymes” value (enolase, PK, LDH) is on record?
**A.** The value was 7%.

**Q.** For `O=c1c2c(O)cccc2oc2cc(NS(=O)(=O)c3ccc(-c4ccccc4)cc3)cc(O)c12` [Compound 9m, N-(1,8-Dihydroxy-9-oxo-9H-xanthen-3-yl)-[1,1′-biphenyl]-4-sulfonamide], which “Counter-Screen Assay (5 μM), inhibition ratio against the other three enzymes” value (enolase, PK, LDH) is on record?
**A.** Its value is 9%.

**Q.** And the IC50 (H1299 cell line)?
**A.** Its IC50 is 20.1 ± 1.4 µM.

**Q.** With `O=c1c2c(O)cccc2oc2cc(NS(=O)(=O)c3cccc4ccccc34)cc(O)c12` [Compound 9n, N-(1,8-Dihydroxy-9-oxo-9H-xanthen-3-yl)naphthalene-1-sulfonamide] as the compound, how does the “Counter-Screen Assay (5 μM), inhibition ratio against the other three enzymes” value (enolase, PK, LDH) read?
**A.** Its value is 13%.

**Q.** What does the source list for `COc1cccc2c(=O)c3c(O)cc(NS(=O)(=O)c4ccc(-c5ccccc5)cc4)cc3oc12` [Compound 15b, N-(1-Hydroxy-5-methoxy-9-oxo-9H-xanthen-3-yl)-[1,1′-biphenyl]-4-sulfonamide]?
**A.** Counter-Screen Assay (5 μM), inhibition ratio against the other three enzymes (enolase, PK, LDH): 13%; IC50 (H1299 cell line): 42.7 ± 3.9 µM

**Q.** Which “Counter-Screen Assay (5 μM), inhibition ratio against the other three enzymes” value (enolase, PK, LDH) does the source give for `O=c1c2cc(O)ccc2oc2cc(NS(=O)(=O)c3ccc(-c4ccccc4)cc3)cc(O)c12` [Compound 15i, N-(1,7-Dihydroxy-9-oxo-9H-xanthen-3-yl)-[1,1′-biphenyl]-4-sulfonamide] here?
**A.** The value was 10%.

**Q.** And the IC50 (H1299 cell line)?
**A.** Its IC50 is 30.6 ± 2.4 µM.

Reference: PMC6100356, “The Design and Synthesis of N-Xanthone Benzenesulfonamides as Novel Phosphoglycerate Mutase 1 (PGAM1) Inhibitors” (Molecules : A Journal of Synthetic Chemistry and Natural …, 2018)
